Tests used:
[1] = target: Sodium-dependent serotonin transporter (Rattus norvegicus, UniProt P31652); assay: In vitro binding affinity towards serotonin transporter using [3H]citalopram as radioligand in rat cerebral cortex membranes; assay type: cell membranes, Membrane
[2] = target: D(2) dopamine receptor (Rattus norvegicus, UniProt P61169); assay: Binding affinity determined against dopamine receptor D2 in rat caudate membranes using [3H]- raclopride as radioligand; assay type: cell membranes
[3] = target: T1, Adrenergic receptor alpha-1 (Rattus norvegicus, UniProt P15823+P23944+P43140); assay: Binding affinity determined against alpha-1 adrenergic receptor in rat cortex membranes using [3H]prazosin as radioligand; assay type: cell membranes
T1 sequence (P15823 whole entry): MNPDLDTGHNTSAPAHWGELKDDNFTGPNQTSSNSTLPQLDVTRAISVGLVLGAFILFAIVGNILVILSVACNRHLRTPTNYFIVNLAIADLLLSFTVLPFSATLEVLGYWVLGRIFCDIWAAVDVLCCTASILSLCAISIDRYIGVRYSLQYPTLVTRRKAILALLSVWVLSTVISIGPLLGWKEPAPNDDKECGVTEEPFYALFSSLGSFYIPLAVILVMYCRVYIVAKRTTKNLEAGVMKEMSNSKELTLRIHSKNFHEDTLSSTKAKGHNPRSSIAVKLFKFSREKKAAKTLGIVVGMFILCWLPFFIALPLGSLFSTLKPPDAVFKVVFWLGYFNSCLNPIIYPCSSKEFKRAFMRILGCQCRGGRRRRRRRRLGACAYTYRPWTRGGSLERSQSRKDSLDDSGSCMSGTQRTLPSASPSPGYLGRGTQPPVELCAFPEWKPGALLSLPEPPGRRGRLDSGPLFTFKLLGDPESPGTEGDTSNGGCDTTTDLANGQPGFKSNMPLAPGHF
T1 sequence (P23944 whole entry): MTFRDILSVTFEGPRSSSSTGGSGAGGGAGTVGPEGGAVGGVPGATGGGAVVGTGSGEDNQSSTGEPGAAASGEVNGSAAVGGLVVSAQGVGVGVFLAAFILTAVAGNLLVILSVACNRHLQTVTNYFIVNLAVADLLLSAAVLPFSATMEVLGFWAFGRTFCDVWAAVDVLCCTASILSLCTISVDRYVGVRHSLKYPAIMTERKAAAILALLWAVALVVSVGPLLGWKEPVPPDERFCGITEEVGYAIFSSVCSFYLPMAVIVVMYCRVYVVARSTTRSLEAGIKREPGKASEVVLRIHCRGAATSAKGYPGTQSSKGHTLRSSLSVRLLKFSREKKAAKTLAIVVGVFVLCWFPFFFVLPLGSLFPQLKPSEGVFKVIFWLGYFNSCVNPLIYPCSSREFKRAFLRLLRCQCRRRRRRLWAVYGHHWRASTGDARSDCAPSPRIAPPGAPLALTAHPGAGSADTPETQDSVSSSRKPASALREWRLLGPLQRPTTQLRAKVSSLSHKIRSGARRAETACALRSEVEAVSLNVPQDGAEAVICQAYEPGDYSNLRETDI
T1 sequence (P43140 whole entry): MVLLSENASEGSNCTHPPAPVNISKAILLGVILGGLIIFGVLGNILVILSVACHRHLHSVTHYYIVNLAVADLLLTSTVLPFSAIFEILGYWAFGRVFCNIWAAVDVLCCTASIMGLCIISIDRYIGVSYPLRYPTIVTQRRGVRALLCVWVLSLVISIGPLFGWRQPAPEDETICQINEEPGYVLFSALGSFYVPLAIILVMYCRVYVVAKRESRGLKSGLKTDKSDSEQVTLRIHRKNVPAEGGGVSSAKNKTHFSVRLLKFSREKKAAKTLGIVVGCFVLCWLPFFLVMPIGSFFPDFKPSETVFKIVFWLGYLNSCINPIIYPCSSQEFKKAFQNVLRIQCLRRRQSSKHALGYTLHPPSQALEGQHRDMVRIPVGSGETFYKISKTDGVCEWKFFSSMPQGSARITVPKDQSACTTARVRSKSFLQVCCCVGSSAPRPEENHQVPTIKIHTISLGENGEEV

[4] = organism: Cavia porcellus; assay: Ability at 30 uM to potentiate potassium-stimulated [3H]5-HT release from preloaded guinea pig cortical slices; assay type: functional
[5] = target: 5-hydroxytryptamine receptor 1B (Homo sapiens, UniProt P28222); assay: Binding affinity towards human 5-hydroxytryptamine 1B receptor in L-M(tk-) cells using [3H]GR-125743 as radioligand; assay type: cell-based
[6] = target: 5-hydroxytryptamine receptor 1D (Homo sapiens, UniProt P28221); assay: Binding affinity towards human 5-hydroxytryptamine 1D receptor in L-M(tk-) cells using [3H]GR-125743 as radioligand; assay type: cell-based
Sequence of 5-hydroxytryptamine receptor 1D (P28221 whole entry): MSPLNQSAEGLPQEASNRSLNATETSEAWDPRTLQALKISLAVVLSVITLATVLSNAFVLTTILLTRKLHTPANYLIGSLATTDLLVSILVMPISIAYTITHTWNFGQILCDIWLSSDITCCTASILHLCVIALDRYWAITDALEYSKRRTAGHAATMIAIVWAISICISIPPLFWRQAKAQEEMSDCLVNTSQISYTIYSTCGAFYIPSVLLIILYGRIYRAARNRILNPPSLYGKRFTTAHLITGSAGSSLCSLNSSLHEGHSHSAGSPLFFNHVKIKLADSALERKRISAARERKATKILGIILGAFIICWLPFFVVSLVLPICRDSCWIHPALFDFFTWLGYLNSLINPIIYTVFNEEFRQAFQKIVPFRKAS

Sequence of 5-hydroxytryptamine receptor 1B (P28222 whole entry): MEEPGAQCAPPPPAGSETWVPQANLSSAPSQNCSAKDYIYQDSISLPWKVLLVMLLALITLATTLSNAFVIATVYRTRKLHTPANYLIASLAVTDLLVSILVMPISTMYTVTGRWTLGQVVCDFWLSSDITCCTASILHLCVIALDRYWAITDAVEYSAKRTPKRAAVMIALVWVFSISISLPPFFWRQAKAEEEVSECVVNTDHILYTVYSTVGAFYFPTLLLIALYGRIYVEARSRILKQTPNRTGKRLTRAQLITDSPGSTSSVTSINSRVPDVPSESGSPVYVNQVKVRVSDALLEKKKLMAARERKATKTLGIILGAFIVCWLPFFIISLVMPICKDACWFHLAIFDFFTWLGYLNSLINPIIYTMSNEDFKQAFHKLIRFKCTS
Sequence of Sodium-dependent serotonin transporter (P31652 whole entry): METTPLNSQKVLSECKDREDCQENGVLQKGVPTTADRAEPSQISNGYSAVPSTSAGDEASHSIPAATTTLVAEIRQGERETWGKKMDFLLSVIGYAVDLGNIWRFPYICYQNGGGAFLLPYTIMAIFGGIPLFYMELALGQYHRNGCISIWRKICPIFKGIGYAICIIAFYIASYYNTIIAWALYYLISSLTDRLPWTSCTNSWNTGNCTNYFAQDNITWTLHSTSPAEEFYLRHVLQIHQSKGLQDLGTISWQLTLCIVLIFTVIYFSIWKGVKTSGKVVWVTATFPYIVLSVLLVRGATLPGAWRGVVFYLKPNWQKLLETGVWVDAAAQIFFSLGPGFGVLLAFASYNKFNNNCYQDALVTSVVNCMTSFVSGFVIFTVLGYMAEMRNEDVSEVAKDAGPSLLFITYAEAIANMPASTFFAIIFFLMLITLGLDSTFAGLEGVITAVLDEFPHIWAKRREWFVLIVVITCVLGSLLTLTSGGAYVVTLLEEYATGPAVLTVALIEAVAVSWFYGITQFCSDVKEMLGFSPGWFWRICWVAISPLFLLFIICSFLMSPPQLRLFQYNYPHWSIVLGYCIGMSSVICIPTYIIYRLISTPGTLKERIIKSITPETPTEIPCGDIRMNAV
Sequence of D(2) dopamine receptor (P61169 whole entry): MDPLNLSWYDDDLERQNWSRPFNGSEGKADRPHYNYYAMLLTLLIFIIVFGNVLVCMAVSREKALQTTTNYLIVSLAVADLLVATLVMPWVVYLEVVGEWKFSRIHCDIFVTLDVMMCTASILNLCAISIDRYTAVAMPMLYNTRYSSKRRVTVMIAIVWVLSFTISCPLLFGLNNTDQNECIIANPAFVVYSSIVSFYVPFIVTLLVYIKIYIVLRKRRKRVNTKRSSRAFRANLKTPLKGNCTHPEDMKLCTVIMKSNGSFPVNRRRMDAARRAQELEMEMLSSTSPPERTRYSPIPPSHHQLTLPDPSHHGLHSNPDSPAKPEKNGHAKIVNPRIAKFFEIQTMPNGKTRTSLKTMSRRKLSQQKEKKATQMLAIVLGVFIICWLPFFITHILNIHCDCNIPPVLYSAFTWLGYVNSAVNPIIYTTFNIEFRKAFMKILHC

SMILES	Ki [1] [nM]	Ki [2] [nM]	Ki [3] [nM]	Release [4] [%]	Ki [5] [nM]	Ki [6] [nM]
NC(=O)c1ccc2c(c1)CCOC2CCN1CC=C(c2cccc3ccccc23)CC1 (configuration not stated)	3.2	167	224	11	153	5.4
NC(=O)c1ccc2c(c1)CCO[C@@H]2CCN1CC=C(c2c[nH]c3c(F)cccc23)CC1	0.2	48	1.7		199	25
NC(=O)c1ccc2c(c1)CCOC2CCN1CC=C(c2noc3cc(F)ccc23)CC1 (configuration not stated)	8	37	3		155	63
NC(=O)c1ccc2c(c1)CCOC2CCN1CC=C(c2c[nH]c3c(Cl)c(Cl)ccc23)CC1 (configuration not stated)	0.28				> 1000	165
NC(=O)c1ccc2c(c1)CCOC2CCN1CC=C(c2csc3cc(F)ccc23)CC1 (configuration not stated)	1	3.8	17		186	20
NC(=O)c1ccc2c(c1)CCOC2CCN1CC=C(c2coc3cc(F)ccc23)CC1 (configuration not stated)	0.29	21	2.8		155	28
Cn1cc(C2=CCN(CCC3OCCc4cc(C(N)=O)ccc43)CC2)c2ccc(F)cc21 (configuration not stated)	0.98	73	17		> 1000	65
C[C@H]1CC(c2c[nH]c3cc(F)ccc23)CCN1CCC1OCCc2cc(C(N)=O)ccc21 (some centres not stated)	0.78	86	20		> 1000	28
NC(=O)c1ccc2c(c1)CCOC2CCN1CCN(c2c[nH]c3cc(F)ccc23)CC1 (configuration not stated)	19	7.1	5.8		310	74
NC(=O)c1ccc2c(c1)CCOC2CCN1CCC(c2nsc3cc(F)ccc23)CC1 (configuration not stated)	53				200	40
NC(=O)c1ccc2c(c1)CCOC2CCN1CC=C(c2cccc3ccc(F)cc23)CC1 (configuration not stated)	13	87	202		210	26
NC(=O)c1ccc2c(c1)CCOC2CCN1CC=C(c2[nH]nc3cc(F)ccc23)CC1 (configuration not stated)	0.5	33	2.1		210	24
COc1ccc2[nH]cc(C3=CCN(CCC4OCCc5cc(C(N)=O)ccc54)CC3)c2c1 (configuration not stated)	3.5	26	75	42	316	31
NC(=O)c1ccc2c(c1)CCOC2CCN1CC=C(c2c[nH]c3cc(F)ccc23)CC1 (configuration not stated)	0.11	4.7	16	36	281	56
NC(=O)c1ccc2c(c1)CCOC2CCN1CC=C(c2c[nH]c3ccc(F)cc23)CC1 (configuration not stated)	1.6	2.1	101		> 1000	130
NC(=O)c1ccc2c(c1)CCO[C@H]2CCN1CC=C(c2c[nH]c3c(F)cccc23)CC1	0.3	7	2.8		387	15
NC(=O)c1ccc2c(c1)CCOC2CCN1CCC(c2c[nH]c3cc(F)ccc23)CC1 (configuration not stated)	2	19	12		131	8.4
NC(=O)c1ccc2c(c1)CCOC2CCN1CC=C(c2c[nH]c3c(F)c(F)ccc23)CC1 (configuration not stated)	0.3	6.7	16		> 1000	57
Cn1nc(C2=CCN(CCC3OCCc4cc(C(N)=O)ccc43)CC2)c2ccc(F)cc21 (configuration not stated)	0.54	183	16		> 1000	51
NC(=O)c1ccc2c(c1)CCOC2CCN1CC=C(c2ccc3cc(F)ccc3c2)CC1 (configuration not stated)	2.2	491	36		> 1000	71
N#Cc1cccc2c(C3=CCN(CCC4OCCc5cc(C(N)=O)ccc54)CC3)c[nH]c12 (configuration not stated)	2.1	15	134		> 1000	130
NC(=O)c1ccc2c(c1)CCOC2CCN1CC=C(c2ccc(F)c3ccoc23)CC1 (configuration not stated)	1.9	52	31			27
NC(=O)c1ccc2c(c1)CCOC2CCN1CCC(c2cccc3ccccc23)CC1 (configuration not stated)	15	50	30	52	73	14
NC(=O)c1ccc2c(c1)CCOC2CCN1CC=C(c2c[nH]c3cc(Cl)ccc23)CC1 (configuration not stated)	0.38				> 1000	145
NC(=O)c1ccc2c(c1)CCOC2CCN1CCC(c2c[nH]c3cc(F)ccc23)C1 (configuration not stated)	2.1	28	1.2		96	40
NC(=O)c1ccc2c(c1)CCOC2CCN1CC=C(c2c[nH]c3cc(C(F)(F)F)ccc23)CC1 (configuration not stated)	0.99	8.6	190		> 1000	122
NC(=O)c1ccc2c(c1)CCOC2CCN1CC=C(c2c[nH]c3c(F)cccc23)CC1 (configuration not stated)	0.76	3.8	26		> 1000	26

Source: ChEMBL document CHEMBL1137925, “SAR development of a selective 5-HT1D antagonist/serotonin reuptake inhibitor lead using rapid parallel synthesis” (Bioorg Med Chem Lett, 2004)
